Values of other authors in patent US20070155747A1, “INHIBITORS OF FATTY ACID AMIDE HYDROLASE” (KADMUS PHARMACEUTICALS, INC., priority 2005, published 2007).

Test system: FAAH
Conditions: literature (Kathuria et al. 2003; Mor et al. 2004; WO 2004/033422)

In the case of NC(=O)c1cccc(-c2cccc(OC(=O)NC3CCCCC3)c2)c1 [KDS-4103], the “inhibition of FAAH activity” value is listed as “potent and selective inhibitors of FAAH activity”.
